Data taken from patent US8722578B2, “Spiroheterocyclic pyrrolidinedione herbicidal compositions” (Syngenta Participations AG, priority 2008, dated 2014).

Key:
[1] = tested on: Alopecurus myosuroides (ALOMY); assay: Example A pre-emergence herbicidal activity, glasshouse pot test; assay type: in vivo; settings: 480 h, rate 250 g/ha, evaluated 20 days after spraying, read-out: ALOMY pre-emergence activity (100=total damage to plant; 0=no damage to plant)
Protocol: (§1) Monocotyledonous and dicotyledonous test plants are sown in standard soil in pots. After cultivation for one day (pre-emergence) or after 10 days cultivation (post-emergence) under controlled conditions in a glasshouse, the plants are sprayed with an aqueous spray solution derived from the formulation of the technical active ingredient in 0.6 ml acetone and 45 ml formulation solution containing 10.6% Emulsogen EL (Registry number 61791-12-6), 42.2% N-methylpyrrolidone, 42.2% dipropylene glycol monomethyl ether (Registry number 34590-94-8) and 0.2% X-77 (Registry number 11097-66-8). The test plants are then grown in a greenhouse under optimum conditions until, 15 days later for post-emergence and 20 days for pre-emergence, the test is evaluated (100=total damage to plant; 0=no damage to plant). Test Plants: Alopecurus myosuroides (ALOMY), Avena fatua (AVEFA), Lolium perenne (LOLPE), Setaria faberi (SETFA), Digitaria sanguinalis (DIGSA), Echinochloa crus-galli (ECHCG) Pre-Emergence Activity

Avena fatua (AVEFA) [2] = assay: as above; assay type: in vivo; settings: 480 h, rate 250 g/ha, evaluated 20 days after spraying, read-out: AVEFA pre-emergence activity (100=total damage to plant; 0=no damage to plant)
Protocol: as §1

[3] = tested on: Digitaria sanguinalis (DIGSA); assay: as above; assay type: in vivo; settings: 480 h, rate 250 g/ha, evaluated 20 days after spraying, read-out: DIGSA pre-emergence activity (100=total damage to plant; 0=no damage to plant)
Protocol: as §1

[4] = tested on: Echinochloa crus-galli (ECHCG); assay: as above; assay type: in vivo; settings: 480 h, rate 250 g/ha, evaluated 20 days after spraying, read-out: ECHOG pre-emergence activity (100=total damage to plant; 0=no damage to plant)
Protocol: as §1

Lolium perenne (LOLPE) [5] = assay: as above; assay type: in vivo; settings: 480 h, rate 250 g/ha, evaluated 20 days after spraying, read-out: LOLPE pre-emergence activity (100=total damage to plant; 0=no damage to plant)
Protocol: as §1

Setaria faberi (SETFA) [6] = assay: as above; assay type: in vivo; settings: 480 h, rate 250 g/ha, evaluated 20 days after spraying, read-out: SETFA pre-emergence activity (100=total damage to plant; 0=no damage to plant)
Protocol: as §1

[7] = tested on: Alopecurus myosuroides (ALOMY); assay: Example A post-emergence herbicidal activity, glasshouse pot test; assay type: in vivo; settings: 360 h, rate 125 g/ha, evaluated 15 days after spraying, read-out: ALOMY post-emergence activity (100=total damage to plant; 0=no damage to plant)
Protocol: as §1, with “Post-Emergence” for “Pre-Emergence”

Avena fatua (AVEFA) [8] = assay: as above; assay type: in vivo; settings: 360 h, rate 125 g/ha, evaluated 15 days after spraying, read-out: AVEFA post-emergence activity (100=total damage to plant; 0=no damage to plant)
Protocol: as §1, with “Post-Emergence” for “Pre-Emergence”

[9] = tested on: Digitaria sanguinalis (DIGSA); assay: as above; assay type: in vivo; settings: 360 h, rate 125 g/ha, evaluated 15 days after spraying, read-out: DIGSA post-emergence activity (100=total damage to plant; 0=no damage to plant)
Protocol: as §1, with “Post-Emergence” for “Pre-Emergence”

[10] = tested on: Echinochloa crus-galli (ECHCG); assay: as above; assay type: in vivo; settings: 360 h, rate 125 g/ha, evaluated 15 days after spraying, read-out: ECHOG post-emergence activity (100=total damage to plant; 0=no damage to plant)
Protocol: as §1, with “Post-Emergence” for “Pre-Emergence”

Lolium perenne (LOLPE) [11] = assay: as above; assay type: in vivo; settings: 360 h, rate 125 g/ha, evaluated 15 days after spraying, read-out: LOLPE post-emergence activity (100=total damage to plant; 0=no damage to plant)
Protocol: as §1, with “Post-Emergence” for “Pre-Emergence”

Setaria faberi (SETFA) [12] = assay: as above; assay type: in vivo; settings: 360 h, rate 125 g/ha, evaluated 15 days after spraying, read-out: SETFA post-emergence activity (100=total damage to plant; 0=no damage to plant)
Protocol: as §1, with “Post-Emergence” for “Pre-Emergence”

[13] = tested on: Alopecurus myosuroides (ALOMY); assay: Example B pre-emergence herbicidal activity, glasshouse pot test; assay type: in vivo; settings: 312 h, first table (headed Post-Emergence, taken as pre-emergence), rate 1000 g/ha, evaluated after 13 days, read-out: ALOMY activity (100=total damage to plant; 0=no damage to plant)
Protocol: (§2) Seeds of a variety of test species are sown in standard soil in pots. After cultivation for one day (pre-emergence) or after 8 days cultivation (post-emergence) under controlled conditions in a glasshouse (at 24/16° C., day/night; 14 hours light; 65% humidity), the plants are sprayed with an aqueous spray solution derived from the formulation of the technical active ingredient in acetone/water (50:50) solution containing 0.5% Tween 20 (polyoxyethelyene sorbitan monolaurate, CAS RN 9005-64-5). The test plants are then grown in a glasshouse under controlled conditions in a glasshouse (at 24/16° C., day/night; 14 hours light; 65% humidity) and watered twice daily. After 13 days for pre and post-emergence, the test is evaluated (100=total damage to plant; 0=no damage to plant). Test Plants: Setaria faberi (SETFA), Alopecurus myosuroides (ALOMY), Echinochloa crus-galli (ECHCG), Avena fatua (AVEFA)

Avena fatua (AVEFA) [14] = assay: as above; assay type: in vivo; settings: 312 h, first table (headed Post-Emergence, taken as pre-emergence), rate 1000 g/ha, evaluated after 13 days, read-out: AVEFA activity (100=total damage to plant; 0=no damage to plant)
Protocol: as §2

[15] = tested on: Echinochloa crus-galli (ECHCG); assay: as above; assay type: in vivo; settings: 312 h, first table (headed Post-Emergence, taken as pre-emergence), rate 1000 g/ha, evaluated after 13 days, read-out: ECHCG activity (100=total damage to plant; 0=no damage to plant)
Protocol: as §2

Setaria faberi (SETFA) [16] = assay: as above; assay type: in vivo; settings: 312 h, first table (headed Post-Emergence, taken as pre-emergence), rate 1000 g/ha, evaluated after 13 days, read-out: SETFA activity (100=total damage to plant; 0=no damage to plant)
Protocol: as §2

[17] = tested on: Alopecurus myosuroides (ALOMY); assay: Example B post-emergence herbicidal activity, glasshouse pot test; assay type: in vivo; settings: 312 h, rate 1000 g/ha, evaluated after 13 days, read-out: ALOMY post-emergence activity (100=total damage to plant; 0=no damage to plant)
In short: (§3)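 Readout: 0–100 damage score 13 d post-spray. Pots in glasshouse (24/16° C, 14 h light, 65% humidity); compound sprayed in acetone/water 50:50 with 0.5% Tween 20, 1 d (pre) or 8 d (post) after sowing.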

Avena fatua (AVEFA) [18] = assay: as above; assay type: in vivo; settings: 312 h, rate 1000 g/ha, evaluated after 13 days, read-out: AVEFA post-emergence activity (100=total damage to plant; 0=no damage to plant)
In short: as §3

[19] = tested on: Echinochloa crus-galli (ECHCG); assay: as above; assay type: in vivo; settings: 312 h, rate 1000 g/ha, evaluated after 13 days, read-out: ECHCG post-emergence activity (100=total damage to plant; 0=no damage to plant)
In short: as §3

Setaria faberi (SETFA) [20] = assay: as above; assay type: in vivo; settings: 312 h, rate 1000 g/ha, evaluated after 13 days, read-out: SETFA post-emergence activity (100=total damage to plant; 0=no damage to plant)
In short: as §3

| Structure (SMILES) | pest or weed control at 250 g/ha [1] | pest or weed control at 250 g/ha (Avena fatua (AVEFA) [2]) | pest or weed control at 250 g/ha [3] | pest or weed control at 250 g/ha [4] | pest or weed control at 250 g/ha (Lolium perenne (LOLPE) [5]) | pest or weed control at 250 g/ha (Setaria faberi (SETFA) [6]) | pest or weed control at 125 g/ha [7] | pest or weed control at 125 g/ha (Avena fatua (AVEFA) [8]) | pest or weed control at 125 g/ha [9] | pest or weed control at 125 g/ha [10] | pest or weed control at 125 g/ha (Lolium perenne (LOLPE) [11]) | pest or weed control at 125 g/ha (Setaria faberi (SETFA) [12]) | pest or weed control at 1000 g/ha [13] | pest or weed control at 1000 g/ha (Avena fatua (AVEFA) [14]) | pest or weed control at 1000 g/ha [15] | pest or weed control at 1000 g/ha (Setaria faberi (SETFA) [16]) | pest or weed control at 1000 g/ha [17] | pest or weed control at 1000 g/ha (Avena fatua (AVEFA) [18]) | pest or weed control at 1000 g/ha [19] | pest or weed control at 1000 g/ha (Setaria faberi (SETFA) [20]) | further results |
| --- | --- | --- | --- | --- | --- | --- | --- | --- | --- | --- | --- | --- | --- | --- | --- | --- | --- | --- | --- | --- | --- |
| CCOC(=O)OC1=C(c2ccc(Cl)cc2Cl)C(=O)NC12CCN(OC)CC2 [Compound P16] | 30% | 30% | 0% | 20% | 50% | 10% | 70% | 30% | 50% | 50% | 20% | 50% | 70% | 50% | 40% | 90% | 100% | 80% | 100% | 100% | melting point: 187 to 189 °C |
| CCOC(=O)OC1=C(c2c(C)cc(C)cc2C)C(=O)NC12CCN(OC)CC2 [Compound P18] | 60% | 70% | 20% | 30% | 70% | 20% | 70% | 60% | 80% | 80% | 70% | 60% | 100% | 90% | 100% | 100% | 100% | 90% | 100% | 100% |  |
| CCOC(=O)OC1=C(c2cc(-c3ccc(Cl)cc3)ccc2C)C(=O)NC12CCN(OC)CC2 [Compound P29] | 20% | 50% | 20% | 60% | 10% | 0% | 90% | 90% | 100% | 100% | 80% | 90% | 70% | 90% | 100% | 100% | 100% | 100% | 100% | 100% | melting point: 209 to 211 °C |
| CON1CCC2(CC1)NC(=O)C(c1cc(-c3ccc(Cl)cc3)ccc1C)C2=O (stereo not drawn) [Compound T9] | 0% | 60% | 0% | 10% | 30% | 0% | 90% | 80% | 100% | 100% | 50% | 90% |  |  |  |  | 80% | 90% | 100% | 100% |  |
